Laboratory results as given in PubChem BioAssay (NCI).
“And” between values parts separate entries of the source, which are not always exact repeats. Identical values can stand only once.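 Briefly, cells in 96-well plates were exposed to five compound concentrations for 48 h, and endpoints were estimated by linear interpolation. GI50: concentration for 50% inhibition of growth. At the TGI there is no net growth.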

How the values were obtained:
Experiment in all cases: NCI-60 cell line screen, 48 h
HOP-62 NSCLC = test system: HOP-62 NSCLC
LOX IMVI melanoma = test system: LOX IMVI melanoma
MOLT-4 leukemia = test system: MOLT-4 leukemia
SF-268 CNS = test system: SF-268 CNS
SK-MEL-5 melanoma = test system: SK-MEL-5 melanoma
SK-OV-3 ovarian = test system: SK-OV-3 ovarian
T-47D breast = test system: T-47D breast
UACC-257 melanoma = test system: UACC-257 melanoma
LXFL 529 NSCLC = test system: LXFL 529 NSCLC

Row | SMILES | GI50 (HOP-62 NSCLC) [µM] | TGI (HOP-62 NSCLC) | GI50 (LOX IMVI melanoma) [µM] | TGI (LOX IMVI melanoma) | GI50 (MOLT-4 leukemia) [µM] | TGI (MOLT-4 leukemia) | GI50 (SF-268 CNS) | TGI (SF-268 CNS) | GI50 (SK-MEL-5 melanoma) [µM] | TGI (SK-MEL-5 melanoma) | GI50 (SK-OV-3 ovarian) [µM] | TGI (SK-OV-3 ovarian) | GI50 (T-47D breast) | TGI (T-47D breast) | GI50 (UACC-257 melanoma) [µM] | TGI (UACC-257 melanoma) | TGI (LXFL 529 NSCLC) [µM]
1 | CC#CC(=O)N1CC[C@@H](n2c(=O)n(-c3ccc(Oc4ccccc4)cc3)c3c(N)ncnc32)C1 | 33.5 | > 100 µM | 18.6 | 83.4 µM | 10.2 | 62.1 µM | 30.3 µM | > 100 µM | 16.9 | 38.8 µM | 40.6 | > 100 µM | 12.2 µM | 62.9 µM | 51.8 | > 100 µM | –
2 | Nc1nc(-c2ccc(Cl)cc2)cc(-c2ccccc2)c1-c1nc2ccccc2o1 | 2.92 | 7.47 µM | 2.42 | 5.77 µM | 3.3 | 11.4 µM | 6.38 µM | 67.2 µM | 14.6 | 29.4 µM | 15.4 | 32.4 µM | 10.2 µM | 27.2 µM | 15.3 | 35.3 µM | –
3 | C=C(C)[C@@H]1CC[C@]2(C(N)=O)CC[C@]3(C)[C@H](CC[C@@H]4[C@@]5(C)C/C(=C/c6cccnc6)[C@H](O)C(C)(C)[C@@H]5CC[C@]43C)[C@@H]12 | 9.52 | > 100 µM | 4.38 | 37.1 µM | 2.93 | > 100 µM | 6.8 µM | > 100 µM | 3.23 | 12.4 µM | 5.26 | > 100 µM | 3.38 µM | > 100 µM | 5.83 | > 100 µM | –
4 | O=NN(CCCl)C(=O)N[C@H]1CCCC[C@@H]1Cl | – | – | – | – | – | > 100 µM | – | > 100 µM | – | > 100 µM | – | > 100 µM | – | – | – | – | > 100
5 | COc1cnc2c(c1)C(=O)c1c-2n(CCCNC(C)C)c(=O)c2cc([N+](=O)[O-])ccc12 | 0.0853 | 0.34 µM | 0.0189 | 0.104 µM | 0.0223 | 0.0941 µM | 0.0488 µM | 1.42 µM | 0.0461 | 0.177 µM | 0.0409 | 0.201 µM | 0.0393 µM | 1.14 µM | 0.195 | 1.44 µM | –
6 | CN1CCN(CC(=O)N2c3cccc4cccc(c34)N(C(=O)CN3CCN(C)CC3)C2c2cn(-c3ccccc3)nc2-c2cccc([N+](=O)[O-])c2)CC1 | 2.02 | 5.52 µM | 1.74 | 3.22 µM | 2.21 | 5.94 µM | 1.95 µM | 4.95 µM | 1.7 | 3.11 µM | 2.11 | 4.6 µM | 1.97 µM | 4.34 µM | 1.86 | 3.69 µM | –
7 | CCCCCC/C=C1\CCC(CN(C)C)C1=O (configuration not stated) | – | 35.1 µM | – | 3.79 µM | – | 18.7 µM | – | 14.3 µM | – | 27.5 µM | – | 34.7 µM | – | 9.81 µM | – | 17.7 µM | 3.8
8 | CCCCCCNCCCNc1c2ccccc2nc2cccc([N+](=O)[O-])c12 | – | 0.0773 µM and 0.0374 µM | 0.044 | 0.0818 µM and 0.295 µM | – | 0.0854 µM and 0.0641 µM | 0.038 µM | 0.0522 µM and 0.405 µM | – | 0.0258 µM and 0.0243 µM | – | 0.278 µM and 0.39 µM | 0.0503 µM | 0.288 µM and 0.457 µM | 0.059 | 0.252 µM and 0.261 µM | –
9 | COc1cc(C)c(NC(=O)CN(C)C)cc1Nc1nc(Nc2cccc(F)c2C(N)=O)c2cc[nH]c2n1 | 1.24 | 5.54 µM | 1.45 | 6.1 µM | 1.09 | 25 µM | 1.27 µM | 5.47 µM | 0.69 | 4.36 µM | 2.67 | 6.29 µM | 3.81 µM | 8.38 µM | 0.0555 | 4.05 µM | –
10 | CCN1CCN(c2ccc(Nc3ncc4ccc5ncn(C(C)C)c5c4n3)nc2)CC1 | 0.0923 | 3.22 µM | 0.116 | 0.556 µM | 0.0416 | 1.91 µM | 0.117 µM | 0.47 µM | 0.153 | 0.405 µM | 0.271 | 0.847 µM | 0.199 µM | 7.3 µM | 0.283 | 27.1 µM | –
11 | Cc1nn(C)c2cc(N(C)c3ccnc(Nc4cccc(S(N)(=O)=O)c4)n3)ccc12 | > 15 | > 25 µM | 7.14 | > 25 µM | 6.62 | > 23.8 µM | 6.39 µM | > 25 µM | 3.62 | 8.4 µM | > 11.8 | > 25 µM | > 7.8 µM | > 21.1 µM | 6.54 | > 25 µM | –
12 | O=S(=O)(CCCCl)SCCCCl | – | > 100 µM | – | 40.6 µM | – | 38.5 µM | – | 65 µM | – | > 94.1 µM | – | > 100 µM | – | 98.2 µM | – | > 100 µM | –
13 | C=C1C(=O)O[C@H]2[C@H]1CC/C(COC(=O)NCc1cc(OC)cc(OC)c1)=C\CC[C@@]1(C)O[C@@H]21 | 3.06 | 11.7 µM | 0.549 | 1.89 µM | 2 | 5.55 µM | 2.46 µM | 9.9 µM | 3.48 | 12.2 µM | 12.8 | 26.1 µM | 1.85 µM | 4.83 µM | 1.54 | 3.7 µM | –
14 | Cn1c(=N)n[n+]([O-])c2ccccc21 | – | 4.29 µM and 4.98 µM | – | > 100 µM | – | 5.57 µM and 5.16 µM | 2.67 µM and 7.11 µM | 7.7 µM and 17.6 µM | – | 3.32 µM and 2.96 µM | – | 46.9 µM and 52.5 µM | 4.34 µM and 9.12 µM | 21.5 µM and 43.2 µM | – | 5.51 µM and 3.92 µM | –
15 | COc1ccc2nc(-c3cc4c([nH]c5ccccc54)c(-c4ccc(F)c(F)c4)n3)[nH]c2c1 | 10.9 | 25.5 µM | 2.86 | 10.8 µM | 2.03 | 7.39 µM | 5.8 µM | 69.6 µM | 4.91 | 21.9 µM | 17.1 | 31.4 µM | 3.76 µM | 20 µM | 5.68 | 22 µM | –
16 | CC1=CC(=O)c2ccc(C)cc2C1=O | – | 32 µM | – | 17.5 µM | – | 6.24 µM | – | 38.4 µM | – | 15 µM | – | 30.5 µM | – | 15 µM | – | 26.6 µM | –
